Laboratory results as given in ChEMBL document CHEMBL4382243, “The synthesis of 4-arylamido-2-arylaminoprimidines as potent EGFR T790M/L858R inhibitors for NSCLC” (Bioorg Med Chem, 2018).
The source made the active and inactive calls. No cut-off for these calls is given here.

Experiments:
[1] = target: Epidermal growth factor receptor (Homo sapiens, UniProt P00533, L858R/T790M); format: cell-based, Sf9
NCI-H1975 [2] = assay: Antiproliferative activity against human NCI-H1975 cells harboring EGFR T790M/L858R double mutant after 72 hrs by MTT assay; format: functional, cell-based; conditions: NCI-H1975, 72 h
A-431 = assay: cells; format: ADME, cell-based; conditions: Homo sapiens, A-431, 72 h
Description: Antiproliferative activity against human A431 cells harboring wild-type EGFR after 72 hrs by MTT assay

A549 = assay: cells; format: functional, cell-based; conditions: Homo sapiens, A549, 72 h
Description: Antiproliferative activity against human A549 cells after 72 hrs by MTT assay

cells = format: ADME, cell-based; conditions: Homo sapiens, NHBE, 72 h
Description: Antiproliferative activity against NHBE cells after 72 hrs by MTT assay

ASPC1 = assay: cells; format: functional, cell-based; conditions: Homo sapiens, ASPC1, 72 h
Description: Antiproliferative activity against human Aspc-1 cells after 72 hrs by MTT assay

[3] = target: Epidermal growth factor receptor (Homo sapiens, UniProt P00533); format: ADME, cell-based, Sf9
Description: Inhibition of wild-type human N-terminal GST-tagged EGFR (695 to end residues) expressed in baculovirus infected Sf9 insect cells using Poly (4:1 Glu, Tyr) as substrate after 60 mins in presence of ATP by ADP-Glo assay

NCI-H23 = assay: Antiproliferative activity against human NCI-H23 cells after 72 hrs by MTT assay; format: functional, cell-based; conditions: NCI-H23, 72 h
NCI-H1975 [4] = assay: Antiproliferative activity against human NCI-H1975 cells harboring EGFR T790M/L858R double mutant at 1 to 20 uM after 72 hrs by acridine orange/ethidium bromide staining based fluorescent microscopic analysis; format: functional, cell-based
NCI-H1975 [5] = assay: Induction of apoptosis in human NCI-H1975 cells harboring EGFR T790M/L858R double mutant assessed as apoptotic body formation at 1 to 20 uM after 72 hrs by DAPI staining based fluorescent microscopic analysis; format: functional, cell-based
NCI-H1975 [6] = assay: Antiproliferative activity against human NCI-H1975 cells harboring EGFR T790M/L858R double mutant assessed as cell viability at 10 uM after 24 hrs by MTT assay (reference value: 98.3%); format: functional; conditions: for viability at 10 µM: Homo sapiens, NCI-H1975, 24 h, read-out: Activity
NCI-H1975 [7] = assay: Induction of apoptosis in human NCI-H1975 cells harboring EGFR T790M/L858R double mutant assessed as nuclear condensation at 1 to 20 uM after 72 hrs by DAPI staining based fluorescent microscopic analysis; format: functional, cell-based
NCI-H1975 [8] = assay: Antimigratory activity against human NCI-H1975 cells at 5 to 10 uM up to 48 hrs by wound healing assay; format: functional, cell-based
NCI-H1975 [9] = assay: Induction of apoptosis in human NCI-H1975 cells harboring EGFR T790M/L858R double mutant assessed as membrane blebbing at 1 to 20 uM after 72 hrs by DAPI staining based fluorescent microscopic analysis; format: functional, cell-based
NCI-H1975 [10] = assay: Antiproliferative activity against human NCI-H1975 cells harboring EGFR T790M/L858R double mutant assessed as cell viability at 1 uM after 72 hrs by MTT assay (reference value: 98.3%); format: functional; conditions: for viability at 1 µM: Homo sapiens, NCI-H1975, 72 h, read-out: Activity
NCI-H1975 [11] = assay: Antiproliferative activity against human NCI-H1975 cells harboring EGFR T790M/L858R double mutant assessed as cell viability at 0.1 uM after 24 hrs by MTT assay (reference value: 98.3%); format: functional; conditions: for viability at 0.1 µM: Homo sapiens, NCI-H1975, 24 h, read-out: Activity
NCI-H1975 [12] = assay: Antiproliferative activity against human NCI-H1975 cells harboring EGFR T790M/L858R double mutant assessed as cell viability at 0.1 uM after 48 hrs by MTT assay (reference value: 98.3%); format: functional; conditions: for viability at 0.1 µM: Homo sapiens, NCI-H1975, 48 h, read-out: Activity
NCI-H1975 [13] = assay: Antiproliferative activity against human NCI-H1975 cells harboring EGFR T790M/L858R double mutant assessed as cell viability at 10 uM after 72 hrs by MTT assay (reference value: 98.3%); format: functional; conditions: for viability at 10 µM: Homo sapiens, NCI-H1975, 72 h, read-out: Activity
NCI-H1975 [14] = assay: Antiproliferative activity against human NCI-H1975 cells harboring EGFR T790M/L858R double mutant assessed as cell viability at 0.1 uM after 72 hrs by MTT assay (reference value: 98.3%); format: functional; conditions: for viability at 0.1 µM: Homo sapiens, NCI-H1975, 72 h, read-out: Activity
NCI-H1975 [15] = assay: Antiproliferative activity against human NCI-H1975 cells harboring EGFR T790M/L858R double mutant assessed as cell viability at 10 uM after 48 hrs by MTT assay (reference value: 98.3%); format: functional; conditions: for viability at 10 µM: Homo sapiens, NCI-H1975, 48 h, read-out: Activity
NCI-H1975 [16] = assay: Antiproliferative activity against human NCI-H1975 cells harboring EGFR T790M/L858R double mutant assessed as cell viability at 1 uM after 48 hrs by MTT assay (reference value: 98.3%); format: functional; conditions: for viability at 1 µM: Homo sapiens, NCI-H1975, 48 h, read-out: Activity
NCI-H1975 [17] = assay: Antiproliferative activity against human NCI-H1975 cells harboring EGFR T790M/L858R double mutant assessed as cell viability at 1 uM after 24 hrs by MTT assay (reference value: 98.3%); format: functional; conditions: for viability at 1 µM: Homo sapiens, NCI-H1975, 24 h, read-out: Activity

Sequence of Epidermal growth factor receptor (Homo sapiens, UniProt P00533) (P00533 whole entry): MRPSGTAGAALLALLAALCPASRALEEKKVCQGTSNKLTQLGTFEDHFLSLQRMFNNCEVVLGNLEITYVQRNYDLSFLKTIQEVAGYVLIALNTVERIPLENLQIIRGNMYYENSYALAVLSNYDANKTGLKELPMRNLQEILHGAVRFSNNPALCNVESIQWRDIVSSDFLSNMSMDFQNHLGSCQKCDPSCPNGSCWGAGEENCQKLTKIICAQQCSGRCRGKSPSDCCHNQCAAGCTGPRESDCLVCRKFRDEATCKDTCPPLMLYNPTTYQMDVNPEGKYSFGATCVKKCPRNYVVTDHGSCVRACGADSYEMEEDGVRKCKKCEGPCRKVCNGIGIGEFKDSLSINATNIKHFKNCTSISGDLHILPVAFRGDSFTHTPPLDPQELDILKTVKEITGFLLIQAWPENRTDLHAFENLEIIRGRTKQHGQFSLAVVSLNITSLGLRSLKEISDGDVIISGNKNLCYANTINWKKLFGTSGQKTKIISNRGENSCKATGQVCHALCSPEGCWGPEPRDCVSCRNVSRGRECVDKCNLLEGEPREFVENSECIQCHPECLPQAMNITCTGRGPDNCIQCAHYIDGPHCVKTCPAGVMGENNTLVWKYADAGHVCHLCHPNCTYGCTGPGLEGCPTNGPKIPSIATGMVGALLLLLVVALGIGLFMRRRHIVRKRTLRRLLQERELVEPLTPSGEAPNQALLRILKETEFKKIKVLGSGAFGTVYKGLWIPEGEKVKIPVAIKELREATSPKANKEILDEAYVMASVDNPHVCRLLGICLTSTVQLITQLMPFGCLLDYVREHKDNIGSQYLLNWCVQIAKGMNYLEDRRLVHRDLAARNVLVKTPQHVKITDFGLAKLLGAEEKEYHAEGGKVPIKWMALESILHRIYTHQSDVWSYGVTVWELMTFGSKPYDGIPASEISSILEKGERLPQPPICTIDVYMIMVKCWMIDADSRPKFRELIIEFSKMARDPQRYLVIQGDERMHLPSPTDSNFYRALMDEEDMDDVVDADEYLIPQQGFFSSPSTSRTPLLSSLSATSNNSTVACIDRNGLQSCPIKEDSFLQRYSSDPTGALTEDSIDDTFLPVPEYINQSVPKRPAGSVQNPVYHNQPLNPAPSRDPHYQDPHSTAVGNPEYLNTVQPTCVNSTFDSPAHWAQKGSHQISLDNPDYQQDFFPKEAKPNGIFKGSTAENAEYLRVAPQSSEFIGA
Sequence of Epidermal growth factor receptor (Homo sapiens, UniProt P00533, L858R/T790M) (P00533 25-1210 T790M/L858R limits assumed): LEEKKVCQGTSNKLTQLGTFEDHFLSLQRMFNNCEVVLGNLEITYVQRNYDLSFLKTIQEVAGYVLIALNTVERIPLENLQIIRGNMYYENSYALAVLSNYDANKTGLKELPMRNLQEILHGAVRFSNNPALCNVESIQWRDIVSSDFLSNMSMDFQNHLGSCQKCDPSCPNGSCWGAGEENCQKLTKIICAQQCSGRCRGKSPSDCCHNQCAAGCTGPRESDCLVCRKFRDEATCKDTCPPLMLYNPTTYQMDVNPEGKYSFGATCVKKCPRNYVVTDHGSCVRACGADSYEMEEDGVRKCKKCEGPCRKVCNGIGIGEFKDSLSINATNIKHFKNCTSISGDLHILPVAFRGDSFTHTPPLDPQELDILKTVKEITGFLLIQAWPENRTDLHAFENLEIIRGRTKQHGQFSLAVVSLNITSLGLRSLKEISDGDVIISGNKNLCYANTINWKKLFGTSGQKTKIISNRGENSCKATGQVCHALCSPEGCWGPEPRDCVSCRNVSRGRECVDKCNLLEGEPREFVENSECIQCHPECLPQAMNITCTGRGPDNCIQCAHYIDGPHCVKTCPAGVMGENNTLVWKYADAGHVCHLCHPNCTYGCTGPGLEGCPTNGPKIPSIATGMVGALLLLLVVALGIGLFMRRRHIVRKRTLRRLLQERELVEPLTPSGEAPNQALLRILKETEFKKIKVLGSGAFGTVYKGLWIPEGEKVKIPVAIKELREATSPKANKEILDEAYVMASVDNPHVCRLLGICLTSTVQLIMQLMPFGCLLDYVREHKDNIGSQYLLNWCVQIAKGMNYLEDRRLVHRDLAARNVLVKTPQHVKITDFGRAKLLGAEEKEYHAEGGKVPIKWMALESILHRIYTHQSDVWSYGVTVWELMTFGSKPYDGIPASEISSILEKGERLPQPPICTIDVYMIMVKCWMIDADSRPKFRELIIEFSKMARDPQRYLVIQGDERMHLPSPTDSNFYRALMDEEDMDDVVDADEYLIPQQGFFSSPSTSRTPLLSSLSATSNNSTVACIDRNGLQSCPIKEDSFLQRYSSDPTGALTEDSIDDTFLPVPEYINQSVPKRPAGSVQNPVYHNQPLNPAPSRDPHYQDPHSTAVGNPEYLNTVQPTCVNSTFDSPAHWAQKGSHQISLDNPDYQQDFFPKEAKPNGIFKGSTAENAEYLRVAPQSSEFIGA

## C=CC(=O)Nc1cc(Nc2nccc(NC(=O)c3cccc(OC)c3)n2)c(OC)cc1N(C)CCN(C)C
[1]
  IC50: 0.059 µM
NCI-H1975 [2]
  IC50: 1.16 µM
A-431
  IC50: 4.16 µM
A549
  IC50: 3 µM
cells
  IC50: 12.3 µM
ASPC1
  IC50: 3.4 µM
[3]
  IC50: 0.153 µM
NCI-H23
  IC50: 11.8 µM

## C=CC(=O)Nc1cc(Nc2nccc(NC(=O)c3ccccc3)n2)c(OC)cc1N(C)C
NCI-H1975 [2]
  IC50: > 20 µM
A-431
  IC50: > 20 µM

## C=CC(=O)Nc1cc(Nc2nccc(NC(=O)c3cccc4ccccc34)n2)c(OC)cc1N1CCN(C)CC1
[1]
  IC50: 0.0333 µM
NCI-H1975 [2]
  IC50: 1.09 µM
A-431
  IC50: 7.75 µM
A549
  IC50: 6.77 µM
cells
  IC50: 18.9 µM
ASPC1
  IC50: 6.6 µM
[3]
  IC50: 0.134 µM
NCI-H23
  IC50: 10.6 µM

## C=CC(=O)Nc1cc(Nc2nccc(NC(=O)c3ccccc3)n2)c(OC)cc1N1CCC(C(N)=O)CC1
[1]
  IC50: 0.000587 µM
NCI-H1975 [2]
  IC50: > 20 µM
A-431
  IC50: 15.5 µM
[3]
  IC50: 0.181 µM

## C=CC(=O)Nc1cc(Nc2nccc(NC(=O)c3ccccc3)n2)c(OC)cc1N1CCN(C)CC1
[1]
  IC50: 0.121 µM
NCI-H1975 [2]
  IC50: 1.42 µM
A-431
  IC50: 3.94 µM
A549
  IC50: 5.97 µM
cells
  IC50: 23.9 µM
ASPC1
  IC50: > 10 µM
[3]
  IC50: 0.156 µM
NCI-H23
  IC50: > 16 µM

## C=CC(=O)Nc1cc(Nc2nccc(NC(=O)c3ccc(OC)c(OC)c3)n2)c(OC)cc1N1CCN(C)CC1
NCI-H1975 [4]
  Activity: Active
NCI-H1975 [5]
  Activity: Active
NCI-H1975 [6]
  viability at 10 µM: 41.4%
NCI-H1975 [7]
  Activity: Active
[1]
  IC50: 0.0126 µM
NCI-H1975 [2]
  IC50: 1.66 µM
NCI-H1975 [8]
  Activity: Active
NCI-H1975 [9]
  Activity: Active
A-431
  IC50: 11.7 µM
NCI-H1975 [10]
  viability at 1 µM: 52.8%
NCI-H1975 [11]
  viability at 0.1 µM: 93.8%
A549
  IC50: 6.82 µM
NCI-H1975 [12]
  viability at 0.1 µM: 91.6%
NCI-H1975 [13]
  viability at 10 µM: 5.8%
NCI-H1975 [14]
  viability at 0.1 µM: 90.2%
cells
  IC50: 27 µM
NCI-H1975 [15]
  viability at 10 µM: 11.8%
NCI-H1975 [16]
  viability at 1 µM: 74.8%
ASPC1
  IC50: > 10 µM
NCI-H1975 [17]
  viability at 1 µM: 85.4%
[3]
  IC50: 0.157 µM
NCI-H23
  IC50: > 16 µM

## C=CC(=O)Nc1cc(Nc2nccc(NC(=O)c3cccc(OC)c3)n2)c(OC)cc1N1CCC(C(N)=O)CC1
[1]
  IC50: 0.0326 µM
NCI-H1975 [2]
  IC50: 11.5 µM
A-431
  IC50: 13.1 µM
[3]
  IC50: 0.0505 µM

## C=CC(=O)Nc1cc(Nc2nccc(NC(=O)c3ccc(OC)c(OC)c3)n2)c(OC)cc1N1CCC(C(N)=O)CC1
[1]
  IC50: 0.0547 µM
NCI-H1975 [2]
  IC50: 1.46 µM
A-431
  IC50: 9.45 µM
A549
  IC50: 4.47 µM
cells
  IC50: > 40 µM
ASPC1
  IC50: > 10 µM
[3]
  IC50: 0.128 µM
NCI-H23
  IC50: > 16 µM

## C=CC(=O)Nc1cc(Nc2nccc(NC(=O)c3cccc(OC)c3)n2)c(OC)cc1N1CCN(C)CC1
[1]
  IC50: 0.055 µM
NCI-H1975 [2]
  IC50: 4.23 µM
A-431
  IC50: 1.59 µM
A549
  IC50: 6.45 µM
cells
  IC50: 2.5 µM
ASPC1
  IC50: > 10 µM
[3]
  IC50: 0.147 µM
NCI-H23
  IC50: 15.9 µM

## C=CC(=O)Nc1cc(Nc2nccc(NC(=O)c3ccccc3)n2)c(OC)cc1N(C)CCN(C)C
[1]
  IC50: 0.143 µM
NCI-H1975 [2]
  IC50: 1.34 µM
A-431
  IC50: 1.06 µM
A549
  IC50: 1.74 µM
cells
  IC50: 15.1 µM
ASPC1
  IC50: 3.58 µM
[3]
  IC50: 0.318 µM
NCI-H23
  IC50: > 16 µM

## C=CC(=O)Nc1cc(Nc2nccc(NC(=O)c3ccc(C(F)(F)F)cc3)n2)c(OC)cc1N1CCC(C(N)=O)CC1
[1]
  IC50: 0.0653 µM
NCI-H1975 [2]
  IC50: 15.7 µM
A-431
  IC50: > 20 µM
[3]
  IC50: 0.127 µM

## C=CC(=O)Nc1cc(Nc2nccc(-c3cn(C)c4ccccc34)n2)c(OC)cc1N(C)CCN(C)C [OSIMERTINIB]
NCI-H1975 [6]
  Activity: 3.68%
NCI-H1975 [2]
  IC50: […]
A-431
  IC50: […]
NCI-H1975 [10]
  Activity: 33.5%
NCI-H1975 [11]
  Activity: 87.1%
A549
  IC50: 3.24 µM
NCI-H1975 [12]
  Activity: 83.6%
NCI-H1975 [13]
  Activity: 1.42%
NCI-H1975 [14]
  Activity: 77.2%
cells
  IC50: > 40 µM
NCI-H1975 [15]
  Activity: 1.71%
NCI-H1975 [16]
  Activity: 59%
ASPC1
  IC50: 3.98 µM
NCI-H1975 [17]
  Activity: 78.6%

## C=CC(=O)Nc1cc(Nc2nccc(NC(=O)c3ccc(OC)c(OC)c3)n2)c(OC)cc1N(C)C
[1]
  IC50: 0.0402 µM
NCI-H1975 [2]
  IC50: 2.15 µM
A-431
  IC50: 18.2 µM
[3]
  IC50: 0.149 µM

## C=CC(=O)Nc1cc(Nc2nccc(NC(=O)c3ccc(C(F)(F)F)cc3)n2)c(OC)cc1N1CCN(C)CC1
[1]
  IC50: 0.0279 µM
NCI-H1975 [2]
  IC50: 3.42 µM
A-431
  IC50: 9.2 µM
A549
  IC50: 7.89 µM
cells
  IC50: 19.4 µM
ASPC1
  IC50: > 10 µM
[3]
  IC50: 0.152 µM
NCI-H23
  IC50: 9.2 µM

## C=CC(=O)Nc1cc(Nc2nccc(NC(=O)c3ccc(C(F)(F)F)cc3)n2)c(OC)cc1N(C)CCN(C)C
[1]
  IC50: 0.0465 µM
NCI-H1975 [2]
  IC50: 3.26 µM
A-431
  IC50: 7.24 µM
A549
  IC50: 9.88 µM
cells
  IC50: 12.9 µM
ASPC1
  IC50: 8.03 µM
[3]
  IC50: 0.109 µM
NCI-H23
  IC50: 7.98 µM

## COc1cc2ncnc(Nc3ccc(F)c(Cl)c3)c2cc1OCCCN1CCOCC1 [GEFITINIB]
NCI-H1975 [6]
  viability at 10 µM: 48.7%
NCI-H1975 [10]
  viability at 1 µM: 63.2%
NCI-H1975 [11]
  viability at 0.1 µM: 97.6%
NCI-H1975 [12]
  viability at 0.1 µM: 93.5%
NCI-H1975 [13]
  viability at 10 µM: 18.7%
NCI-H1975 [14]
  viability at 0.1 µM: 89.9%
NCI-H1975 [15]
  viability at 10 µM: 32.7%
NCI-H1975 [16]
  viability at 1 µM: 84.3%
NCI-H1975 [17]
  viability at 1 µM: 90.6%

## C=CC(=O)Nc1cc(Nc2nccc(NC(=O)c3ccc(OC)c(OC)c3)n2)c(OC)cc1N(C)CCN(C)C
[1]
  IC50: 0.123 µM
NCI-H1975 [2]
  IC50: 2.65 µM
A-431
  IC50: 6.55 µM
A549
  IC50: 3.95 µM
cells
  IC50: 12.7 µM
ASPC1
  IC50: 3.32 µM
[3]
  IC50: 0.187 µM
NCI-H23
  IC50: 15.5 µM
